As a reminder, the melting point is the temperature, or range, at which the solid turns liquid.

These results are taken from paper PMC6278568, “Discovery of 3-Amino-2-Hydroxypropoxyisoflavone Derivatives as Potential Anti-HCV Agents” (Molecules, 2018).

“Also recorded” adds a separate entry of the source. Where two headings read alike, the source gives them in different places.

One data set concerns HCV replication. Briefly: Anti-HCV activity in Ava-5 HCV subgenomic replicon cells (firefly luciferase assay). In kind it is cell-based, Hepatitis C virus. The note with it: Ava-5 cells; for EC50: treated for three days, firefly luciferase assay, read-out: EC50 (concentration resulting in a 50% inhibition in virus production / HCV replication); for anti-HCV activity compared with ribavirin (in words): three days. How it is done:
Ava-5 cells were treated with compounds 6a–i or the positive ribavirin for three days, and then analyzed through firefly luciferase assay. The concentration that inhibited 50% HCV replication (EC50), the concentration that inhibited 50% cell growth (CC50), and the selectivity index (SI: CC50/EC50) of compounds were determined with ribavirin as a positive control.
(§1) Compounds were dissolved in DMSO at 10 mM and then diluted in culture medium.
(§2) Ava5 cells, an engineered HCV subgenomic replicon cell line, were cultured in Dulbecco′s modified Eagle′s medium (DMEM) with 10% heat-inactivated fetal bovine serum, 1% antibiotic–antimycotic, and 1% non-essential amino acids. Ava5 cells were maintained in DMEM with 1 mg mL^−1 G418 to maintain the stable expression of replicon.

Data set [1] in a line: Cytotoxicity in Ava-5 cells (XTT method). In kind it is cell-based. Conditions: human, Ava5 cells (HCV subgenomic replicon cell line); Ava-5 cells, 72 h, XTT method; read-out: CC50 (concentration causing a 50% growth inhibition of uninfected ava-5 cells). How it is done:
as §1, §2
(§3) For cytotoxicity tests, run in parallel with antiviral assays, plates at an initial density of (5 × 10^3 cells/well) were treated with or without serial dilutions of test compounds. Cell viability was determined after 72 h at 37 °C in a humidified CO2 (5%) atmosphere by the (2,3-bis[2-methyloxy-4-nitro-5-sulfophenyl]-2H-tetrazolium-5-carboxanilide) (XTT) method.
On the technique in general: Formazan colour is commonly taken as a measure of viable cells.

For a further data set, the system named is HCV. Conditions: cited from earlier work.
A further data set has as its system HO-1 protein expression. Briefly: HO-1 protein expression in Ava-5 cells by western blotting. In kind it is cell-based. Conditions: 10 μM, 3 days, compared with DMSO-treated cells. As to the method:
To determine whether compounds 6b, 6e, 6h and 6i have impact on HO-1 protein expression in Ava-5 cells, we treated these compounds at 10 μM in Ava5 cells.
Ava5 cells were seeded in 24-well plates at a density of 5 × 10^4 cells per well overnight and treated with indicated reagent at proper concentrations for 3 days. Cells were washed with cold phosphate buffer saline (PBS) and lysed by radioimmunoprecipitation assay (RIPA) lysis buffer (50 mM Tris-HCl, pH 7.5, 150 mM NaCl, 1% Nonidet P-40, 2 mM EDTA, 1 mM EGTA, 1 mM NaVO3, 10 mM NaF, 1 mM DTT, 1 mM PMSF, 25 μg/mL aprotinin, and 25 μg/mL leupeptin) and stored at −20 °C. The protein concentration was determined by the Bradford method. Ten μg protein were separated by 10% SDS-PAGE and transferred onto a polyvinylidene difluorid (PVDF) membrane. The membrane was blocked with 5% non-fat dried milk and incubated with specific antibodies against NS5B (1:5000; Abcam Cambridge, MA, USA), glyceraldehyde-3-phosphate dehydrogenase (GAPDH) and anti-HO-1 (1:3000, Abcam Cambridge, MA, USA). Antibodies were diluted in 5% milk containing Tris-buffered saline (TBS) and 0.5% Tween. The blotting signal was developed using an ECL detection kit (PerkinElmer, Norwalk, CT, USA) and was counted by the software Quantity One (Bio-Rad, Foster, CA, USA).
Compound 6b, 6e, 6h and 6i induced HO-1 protein expression. Ava-5 cells were treated with compounds at 10 μM for 3 days. The cell lysate was subjected to western blotting with anti-HO-1 and anti-GAPDH antibodies.
In general terms: Immunoblotting shows a protein as a band on a membrane.

Data set [2] has as its system Nrf2 / ARE transactivation. Description: ARE transactivation, p3xARE-Luc reporter in Ava-5 cells (luciferase assay). In kind it is cell-based. The note with it: p3xARE-Luc-transfected Ava-5 cells, 1 and 10 μM, 3 days. From the text: Heme oxygenase 1 expression is regulated by the transcription factors Nrf2, Keap1, and Bach1 through the binding of ARE in its promoter region; therefore, we determined whether isoflavones-mediated HO-1 induction was dependent on ARE transactivation by treating p3xARE-Luc-transfected ava-5 cells with increasing concentrations of […] for 3 days.
Ava5 cells were transfected with the HO-1 promoter-driven luciferase plasmid, pHO-1-Luc, using the T-pro^TM transfection reagent (Ji-Feng Biotechnology Co., Ltd., Taipei, Taiwan) according to the manufacturer′s instructions. The transfected cells were treated with compounds at various concentrations for 3 days. Each transfection complex contains 0.1 μg pSEAP, a secreted alkaline phosphatase (SEAP) expression vector, for normalization luciferase activity serving as a transfection control. The luciferase activity assay was performed using the Bright-Glo Luciferase assay system (Promega) (Madison, WI, USA) according to the manufacturer′s instructions.
Figure 6 Isoflavones inhibited HCV replication by upregulating Nrf2 expression. Compound 6b, 6e, 6h and 6i stimulated ARE transactivation in Ava-5 cells. The antioxidant response reporter plasmid, p3xARE-Luc, was transfected into Ava-5 cells and then treated with isoflavones (1 and 10 μM) for 3 days. The relative induction of antioxidant activity was determined by luciferase assay. The activity of untreated Ava-5 cells was considered to be 1.

The next data set deals with ava-5 cells. Description: Cytotoxicity in Ava-5 cells (XTT method). In kind it is cell-based. Conditions: Ava-5 cells, 72 h, XTT method; read-out: CC50 (concentration causing a 50% growth inhibition of uninfected ava-5 cells). How it is done: as §1, §2, §3
A further data set relates to HCV genotype 1b. The note with it: cited from earlier work.
The subject of a further data set is HCV genotype 2a. Conditions: cited from earlier work.

Regarding `NC(=O)c1ncn([C@@H]2O[C@H](CO)[C@@H](O)[C@H]2O)n1` [ribavirin, reference compound], the “SI (selectivity index, CC50/EC50)” value in the data set with HCV replication is recorded as 8.08. In the data set with HCV replication (Hepatitis C virus, Ava5, 72 h), the EC50 came out at 13.2 ± 1.63 µM. For the same compound, in [1], the CC50 at 72 h was determined as 106 ± 3.69 µM.

In the case of `O=c1c(O)c(-c2ccc(O)c(O)c2)oc2cc(OCc3cccc(Cl)c3)cc(O)c12` [Compound 3, 7-[(3-chlorobenzyl)oxy]-2-(3,4-dihydroxyphenyl)-3,5-dihydroxy-4H-chromen-4-one], in the data set on HCV (anti-HCV evaluation of quercetin analogues), the EC50 is 3.8 µM.

Turning to `CCC(C)(C)NCC(O)COc1ccc2c(=O)c(-c3ccc(OC)c(OC)c3)coc2c1` (stereo not shown) [Compound 6e, 3-(3,4-Dimethoxyphenyl)-7-(2-hydroxy-3-(tert-pentylamino)propoxy)-4H-chromen-4-one], the HO-1 protein level entry in the data set with HO-1 protein expression is listed as “could induce HO-1 protein level”. For the same compound, the ARE-mediated luciferase activity entry in [2] is recorded as “increased ARE-mediated luciferase activity”. For the same compound, in the data set with HCV replication, the “anti-HCV activity compared with ribavirin (in words)” value was “more active than ribavirin; also recorded: higher anti-HCV effects than ribavirin” and the “SI (selectivity index, CC50/EC50)” value is listed as 10.80. Also, in the data set with HCV replication (Hepatitis C virus, Ava5, 72 h), the EC50 was 8.14 ± 1.74 µM. Further, in [1], the CC50 at 72 h came to 87.9 ± 2.13 µM.

As for `COc1ccc(-c2coc3cc(OCC(O)CNC(C)(C)c4ccccc4)ccc3c2=O)cc1OC` (stereo not shown) [Compound 6f, 3-(3,4-Dimethoxyphenyl)-7-{2-hydroxy-3-[(2-phenylpropan-2-yl)amino]propoxy}-4H-chromen-4-one], the melting point was 131 to 132 °C. The “SI (selectivity index, CC50/EC50)” value with HCV replication is given as 3.30. In addition, the EC50 in the data set on HCV replication (Hepatitis C virus, Ava5, 72 h) is 14.3 ± 0.84 µM. Further, the CC50 at 72 h in [1] turned out to be 47.2 ± 2.74 µM.

As for “3-{{3-{[3-(3,4-Dimethoxyphenyl)-4-oxo-4H-chromen-7-yl]oxy}-2-hydroxypropyl}amino}-2-(1H-indol-3-yl)propanoic acid [Compound 6d]”, the EC50 in the data set with HCV replication was more than 20 µM. Moreover, the CC50 in the data set on ava-5 cells was found to be 98.8 ± 3.67 µM.

As for `c1ccc(Cn2c(-c3ccccc3)cc3c2CCCC3)cc1` [Compound 1, 1-benzyl-2-phenyl-4,5,6,7-tetrahydro-1H-indole], the EC50 with HCV genotype 1b is 7.9 µM; in the data set on HCV genotype 2a, 2.6 µM.

For `CCOC(=O)C1C[C@@H]2/C(=N/Nc3ccccc3)CCCC[C@@H]2N1S(=O)(=O)c1ccc(C)cc1` (stereo partly drawn) [Compound 2, (3aS,8aS,E)-ethyl-4-(2-phenylhydrazono)-1-tosyldecahydro-cyclohepta[b]pyrrole-2-carboxylate], the EC50 is 1.8 µM in the data set with HCV genotype 1b and 4.5 µM in the data set on HCV genotype 2a.

The compound `COc1ccc(-c2coc3cc(OCC(O)CNCC4(N5CCOCC5)CCCCC4)ccc3c2=O)cc1OC` (stereo not shown) [Compound 6i, 3-(3,4-Dimethoxyphenyl)-7-{2-hydroxy-3-{[(1-morpholinocyclohexyl)methyl]amino}propoxy}-4H-chromen-4-one] displayed a melting point of 67 to 68 °C. Besides, in the data set with HO-1 protein expression, the HO-1 protein level entry was “could induce HO-1 protein level”. The ARE-mediated luciferase activity result in data set [2] is recorded as “increased ARE-mediated luciferase activity”. Besides, in the data set with HCV replication, the “anti-HCV activity compared with ribavirin (in words)” value was “more active than ribavirin; also recorded: higher anti-HCV effects than ribavirin” and the “SI (selectivity index, CC50/EC50)” value stood at 14.55. In addition, in the data set with HCV replication (Hepatitis C virus, Ava5, 72 h), the EC50 came to 10.7 ± 0.87 µM. For the same compound, in data set [1], the CC50 at 72 h was 156 ± 1.58 µM.

Regarding `COc1ccc(-c2coc3cc(OCC(O)CNC(C)(C)Cc4ccc(F)cc4)ccc3c2=O)cc1OC` (stereo not shown) [Compound 6h, 3-(3,4-Dimethoxyphenyl)-7-{3-{[1-(4-fluorophenyl)-2-methylpropan-2-yl]amino}-2-hydroxypropoxy}-4H-chromen-4-one], the melting point lay within 151 to 152 °C. Besides, the HO-1 protein level result in the data set on HO-1 protein expression is given as “could induce HO-1 protein level”. Besides, the ARE-mediated luciferase activity entry in data set [2] is given as “increased ARE-mediated luciferase activity”. Also, in the data set on HCV replication, the “anti-HCV activity compared with ribavirin (in words)” value was “more active than ribavirin; also recorded: higher anti-HCV effects than ribavirin” and the “SI (selectivity index, CC50/EC50)” value was 11.87. The EC50 with HCV replication (Hepatitis C virus, Ava5, 72 h) is 9.35 ± 0.97 µM. The CC50 at 72 h in data set [1] was found to be 111 ± 4.39 µM.

The compound `COc1ccc(-c2coc3cc(OCC(O)CNCCc4ccc(O)cc4)ccc3c2=O)cc1OC` (stereo not shown) [Compound 6a, 3-(3,4-Dimethoxyphenyl)-7-{2-hydroxy-3-[(4-hydroxyphenethyl)amino]propoxy}-4H-chromen-4-one] gave a melting point of 117 to 118 °C. The “SI (selectivity index, CC50/EC50)” value with HCV replication is less than 3.58. In the data set on HCV replication (Hepatitis C virus, Ava5, 72 h), the EC50 is more than 20 µM. For the same compound, the CC50 at 72 h in data set [1] amounted to 71.7 ± 4.44 µM.

With `COc1ccc(-c2coc3cc(OCC(O)CNCCc4c[nH]c5ccccc45)ccc3c2=O)cc1OC` (stereo not shown) [Compound 6c, 7-{3-{[2-(1H-Indol-3-yl)ethyl]amino}-2-hydroxypropoxy}-3-(3,4-dimethoxyphenyl)-4H-chromen-4-one], the melting point was 178 to 179 °C. Besides, in the data set on HCV replication, the “SI (selectivity index, CC50/EC50)” value is given as 2.26. Moreover, in the data set on HCV replication (Hepatitis C virus, Ava5, 72 h), the EC50 was 16.3 ± 0.95 µM. Also, the CC50 at 72 h in data set [1] stood at 36.9 ± 0.46 µM.

With `COc1ccc(-c2coc3cc(OCC(O)CNC(C)(C)N4CCOCC4)ccc3c2=O)cc1OC` (stereo not shown) [Compound 6g, 3-(3,4-Dimethoxyphenyl)-7-{2-hydroxy-3-[(2-morpholinopropan-2-yl)amino]propoxy}-4H-chromen-4-one], in the data set with HCV replication, the “SI (selectivity index, CC50/EC50)” value was less than 7.17. The EC50 in the data set with HCV replication (Hepatitis C virus, Ava5, 72 h) was more than 20 µM. Further, the CC50 at 72 h in [1] is 144 ± 3.82 µM.

For the compound `COc1ccc(Nc2cc3oc(-c4ccco4)nc3c3ccccc23)cc1` [Compound 4, 2-(furan-2-yl)-N-(4-methoxyphenyl)naphtho[1,2-d]oxazol-5-amine], the EC50 in the data set with HCV (anti-HCV evaluation of naphtho[1,2-d]oxazole derivatives) was 0.63 µM.
